These results are taken from patent US20240158446A1, “CYCLIC COMPOUND HAVING SELECTIVE INHIBITORY ACTION ON KRAS OVER HRAS AND NRAS” (CHUGAI SEIYAKU KABUSHIKI KAISHA, priority 2021, published 2024).

Experiment [1] concerns the target GDP-bound NRAS wild-type protein (Homo sapiens, UniProt P01111). In words: Binding to NRAS by surface plasmon resonance (SPR), Single Cycle Kinetics. The note with it: for NRAS/KRAS (ratio of KD value for NRAS to KD value for KRAS): SPR, GDP-bound NRAS wild-type protein vs GDP-bound KRAS wild-type protein; for NRAS/KRAS (ratio of KD value with respect to GDP-bound NRAS wild-type protein to KD value with respect to KRAS): SPR KD ratio NRAS/KRAS, class symbols. For orientation: Surface plasmon resonance follows binding to a sensor surface in real time, without labels.

In experiment [2] the target is GDP-bound HRAS wild-type protein (Homo sapiens, UniProt P01112). The experiment is described as follows: Binding to HRAS by surface plasmon resonance (SPR), Single Cycle Kinetics. The note with it: for HRAS/KRAS (ratio of KD value for HRAS to KD value for KRAS): SPR, GDP-bound HRAS wild-type protein vs GDP-bound KRAS wild-type protein; for HRAS/KRAS (ratio of KD value with respect to GDP-bound HRAS wild-type protein to KD value with respect to KRAS): SPR KD ratio HRAS/KRAS, class symbols.
Sequence of GDP-bound HRAS wild-type protein (P01112 whole entry): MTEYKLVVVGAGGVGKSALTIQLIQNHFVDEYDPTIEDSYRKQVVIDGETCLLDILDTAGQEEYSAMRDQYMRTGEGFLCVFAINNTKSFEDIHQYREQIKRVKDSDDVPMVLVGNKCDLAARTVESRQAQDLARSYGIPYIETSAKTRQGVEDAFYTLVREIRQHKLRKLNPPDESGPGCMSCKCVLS

Sequence of GDP-bound NRAS wild-type protein (P01111 whole entry): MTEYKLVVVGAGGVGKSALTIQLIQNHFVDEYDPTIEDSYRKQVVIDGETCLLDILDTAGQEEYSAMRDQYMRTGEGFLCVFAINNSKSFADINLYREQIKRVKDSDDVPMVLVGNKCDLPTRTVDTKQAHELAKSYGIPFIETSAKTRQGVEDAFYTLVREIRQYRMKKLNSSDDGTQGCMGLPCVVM

Take `CCCC[C@H]1C(=O)N[C@@H]([C@@H](C)CC)C(=O)N(C)CC(=O)N(C)[C@H]2C/C=C\CCN(C2=O)[C@@H](Cc2ccc(C(F)(F)F)cc2)C(=O)N(C)CC(=O)N[C@@H](CCc2cc(F)c(C(F)(F)F)c(F)c2)C(=O)N2C[C@H](OCC)C[C@H]2C(=O)NC2(CCC2)C(=O)N(C)[C@@H](C2CCCC2)C(=O)N(C)[C@H](C(=O)N(CC)CC)CC(=O)N1C` [PP1576]: the “NRAS/KRAS (ratio of KD value for NRAS to KD value for KRAS)” value in experiment [1] (KD ratio class) was “AA (a compound having 20 or more is denoted as AA)”. In addition, the “HRAS/KRAS (ratio of KD value for HRAS to KD value for KRAS)” value in experiment [2] (KD ratio class) was “A (a compound having 10 or more and less than 20 is denoted as A)”.
For the compound `CCC[C@H]1C(=O)N[C@@H]([C@@H](C)CC)C(=O)N(C2CC2)CC(=O)N(C)[C@H]2C/C=C\CCN(C2=O)[C@@H](Cc2ccc(C)cc2)C(=O)N(C)CC(=O)N[C@@H](CCc2cc(C)c(C(F)F)c(C)c2)C(=O)N2C[C@H](OCC)C[C@H]2C(=O)NC2(CC(C)(C)C2)C(=O)N(C)[C@@H](C2CCCC2)C(=O)N(C)[C@H](C(=O)N(C)C)CC(=O)N1C` [PP2873], the “NRAS/KRAS (ratio of KD value with respect to GDP-bound NRAS wild-type protein to KD value with respect to KRAS)” value in experiment [1] was “A (a compound having 10 or more and less than 20 is denoted as A)”. The “HRAS/KRAS (ratio of KD value with respect to GDP-bound HRAS wild-type protein to KD value with respect to KRAS)” value in experiment [2] was “A (a compound having 10 or more and less than 20 is denoted as A)”.
`CCO[C@@H]1C[C@H]2C(=O)NC3(CCC3)C(=O)N(C)[C@@H](C3CCCC3)C(=O)N(C)[C@H](C(=O)N(C)CC)CC(=O)N(C)[C@H]3CCCCCCc4ccc(cc4)C[C@@H](C(=O)N(C)CC(=O)N[C@@H](CCc4ccc(C(F)(F)F)c(OC)c4)C(=O)N2C1)N1CC/C=C\C[C@@H](C1=O)N(C)C(=O)CN(C)C(=O)[C@H]([C@@H](C)CC)NC3=O` [PP2263]: the “NRAS/KRAS (ratio of KD value for NRAS to KD value for KRAS)” value in experiment [1] was “A (a compound having 10 or more and less than 20 is denoted as A)”. For the same compound, the “HRAS/KRAS (ratio of KD value for HRAS to KD value for KRAS)” value in experiment [2] is “A (a compound having 10 or more and less than 20 is denoted as A)”.
Consider `CCC[C@H]1C(=O)N[C@@H]([C@@H](C)CC)C(=O)N(C)CC(=O)N(C)[C@H]2C/C=C\CCN(C2=O)[C@@H](Cc2ccc(C)cc2)C(=O)N(C)CC(=O)N[C@@H](CCc2ccc(C(F)(F)F)c(Cl)c2)C(=O)N2C[C@H](CC)C[C@H]2C(=O)NC2(CCC2)C(=O)N(C)[C@@H](C2CCCC2)C(=O)N(C)[C@H](C(=O)N(C)C)CC(=O)N1C` [PP2237], for which the “NRAS/KRAS (ratio of KD value for NRAS to KD value for KRAS)” value in experiment [1] is “A (a compound having 10 or more and less than 20 is denoted as A)”. Moreover, the “HRAS/KRAS (ratio of KD value for HRAS to KD value for KRAS)” value in experiment [2] is “A (a compound having 10 or more and less than 20 is denoted as A)”.
With `CCC[C@H]1C(=O)N[C@@H]([C@@H](C)CC)C(=O)N(C)CC(=O)N(C)[C@H]2C/C=C\CCN(C2=O)[C@@H](Cc2ccc(C(F)(F)F)cc2)C(=O)N(C)CC(=O)N[C@@H](CCc2cc(F)c(Cl)c(OC)c2)C(=O)N2C[C@H](OCC)C[C@H]2C(=O)NC2(CC(C)(C)C2)C(=O)N(C)[C@@H](C2CCCC2)C(=O)N(C)[C@H](C(=O)N(C)C)CC(=O)N1C` [PP2864], in experiment [1], the “NRAS/KRAS (ratio of KD value with respect to GDP-bound NRAS wild-type protein to KD value with respect to KRAS)” value is “A (a compound having 10 or more and less than 20 is denoted as A)”. In experiment [2], the “HRAS/KRAS (ratio of KD value with respect to GDP-bound HRAS wild-type protein to KD value with respect to KRAS)” value is “A (a compound having 10 or more and less than 20 is denoted as A)”.
As for `CCCN1C(=O)CN(C)C(=O)CN(C)C(=O)[C@H]([C@@H](C)CC)NC(=O)[C@@H]2CCCCCCC[C@@](C)(NC(=O)[C@@H]3C[C@@H](OCC)CN3C(=O)[C@H](CCc3cc(F)c(C(F)(F)F)c(F)c3)NC(=O)CN(C)C(=O)[C@@H]1Cc1ccc(C(F)(F)F)cc1)C(=O)N(C)[C@@H](C1CCCC1)C(=O)N(C)[C@H](C(=O)N1CCOCC1)CC(=O)N2C` (stereo in doubt) [PP0898], the “NRAS/KRAS (ratio of KD value for NRAS to KD value for KRAS)” value in experiment [1] is “B (a compound having 3 or more and less than 10 is denoted as B)”. Further, the “HRAS/KRAS (ratio of KD value for HRAS to KD value for KRAS)” value in experiment [2] was “B (a compound having 3 or more and less than 10 is denoted as B)”.
